Assay results taken from patent publication US11230578B2, “Peptides and use of same in the treatment of diseases, disorders or conditions associated with a mutant P53” (Yeda Research and Development Co. Ltd., priority 2016, dated 2022).
Like-named read-outs stand apart in the source and are kept apart here.

Key:
[1] = system: ES2 ovarian cancer cells (p53 mutant S241F); assay type: cell-based
Method: Cells were cultured in 96 wells plates with 3000 cells/well. […] Then medium was removed and cell viability was determined by staining the cells with crystal violet (0.05%) in methanol/PBS (1:5, v/v), for 10 min, followed by 3 washes with PBS. 10% acetic acid was added to each well for 10 min. OD was determined at 595 nm.
Cells, ES2 Con expressing endogenous mp53^S241F, and ES2 KO cells in which p53 was stably knocked out using CRISPR/Cas9 (ES2 p53KO), to control for specificity for mutp53 were cultured in 96 wells plates with 3000 cells/well. Indicated peptides were added at a concentration of 8 μg/ml and the plates incubated for additional 48 h at 37° C. Then medium was removed and cell viability was determined by staining the cells with crystal violet (0.05%) in methanol/PBS (1:5, v/v), for 10 min, followed by 3 washes with PBS. 10% acetic acid was added to each well for 10 min. OD was determined at 595 nm.
Cells were cultured in 96 wells plates with 3000 cells/well. Serial dilutions of different peptides were added and the plates incubated for additional 48 h at 37° C. Then the medium was removed and cell viability was determined by staining the cells with crystal violet (0.05%) in methanol/PBS (1:5, v/v), for 10 min, followed by 3 washes with PBS. 10% acetic acid was added to each well for 10 min. OD was determined at 595 nm. Results are normalized to non-treated cells 100% viability.
Cells were cultured in 96 wells plates with 2500-4000 cells/well. Serial dilutions of different peptides were added and the plates incubated for additional 48 h at 37° C. Then medium was removed and cell viability was determined by staining the cells with crystal violet (0.05%) in methanol/PBS (1:5, v/v), for 10 min, followed by 3 washes with PBS. 10% acetic acid was added to each well for 10 min. OD was determined at 595 nm.
ES2 Cells were cultured in 96 wells plates with 3000 cells/well. […] Then medium was removed and cell viability was determined by staining the cells with crystal violet (0.05%) in methanol/PBS (1:5, v/v), for 10 min, followed by 3 washes with PBS. 10% acetic acid was added to each well for 10 min. OD was determined at 595 nm.
Cells, ES2 Con expressing endogenous mp53S241F, and ES2 KO cells in which p53 was stably knocked out using CRISPR/Cas9 (ES2 p53KO), to control for specificity for mutp53 were cultured in 96 wells plates with 3000 cells/well. The indicated peptides were added at a concentration of 8 μg/ml and the plates incubated for additional 48 h at 37° C. Then medium was removed and cell viability was determined by staining the cells with crystal violet (0.05%) in methanol/PBS (1:5, v/v), for 10 min, followed by 3 washes with PBS. 10% acetic acid was added to each well for 10 min. OD was determined at 595 nm.

[2] = Pharmacokinetic study, plasma half life; assay type: in vivo
Text: FIGS. 4A-D show the pharmacokinetics of various modes of administration.

[3] = system: ES2 cells expressing luciferase; assay: ES2 ovarian cancer mouse xenograft model, luciferase live imaging; assay type: in vivo, nude mice
Method: 2*10^5 ES2 cells expressing luciferase were injected into the hips of nude mice. Bioluminescence was measured. […] The background threshold detection level of the IVIS system was about 5×10^6 photons. […]
Mice (6 weeks Athymic nude) were injected subcutaneously with 2×10^5-10^6 cells into each […]. All the cell lines employed in these experiments stably express a luciferase reporter gene to enable monitoring of tumor growth by live imaging. 4-18 days later, when tumors reached visible size, the mice were randomly divided into several groups: a control group, treated with either a single control peptide, and groups treated with effective peptide, either a single peptide. Peptides were administered either by intratumoral injection of 10 μg peptide per tumor in 40 μl PBS, three times a week or by Alzet mini pumps 0.8 mg for two weeks. Tumor growth over time was measured by live imaging, using the IVIS2000 system. Exposure time was calibrated to 20 seconds. 16 images were taken over 8 minutes and peak luminescence values were taken for each tumor. Experiments were conducted until tumors reached maximal allowed size of 1 cm^3, at which mice were sacrificed and tumors extracted, measured and weighed.

## CCCCCCCCCCCCCC(=O)N[C@@H](CCCNC(=N)N)C(=O)N[C@@H](CCCNC(=N)N)C(=O)N[C@@H](Cc1c[nH]cn1)C(=O)N[C@@H](CO)C(=O)N[C@H](C(=O)N1CCC[C@H]1C(=O)N[C@@H](Cc1c[nH]cn1)C(=O)N1CCC[C@H]1C(=O)N[C@@H](CC(=O)O)C(=O)O)[C@@H](C)O [pCAP-250]
[1]; 48 h
  IC50: 3.2 µM
[1]; ES2 cells, FIG. 1
  viability of the cancer cells in the presence of peptide: reduced significantly
[1]; ES2 cells, pCAP-250 dilutions + 1 μg/ml cisplatin, 48 h
  combination effect of pCAP-250 and cisplatin: synergistic effect
[1]; read-out: IC50 for pCAP-250 in combination with cisplatin, cell viability, ES2 cells, together with 1 μg/ml of cisplatin, 48 h, estimated
  IC50: 1.9 µM
[2]; iv, 1 mg/kg, administered intravenously
  half-life: 0.8 to 1.8 h
[2]; sc, administered subcutaneously
  half-life: 3 to 8 h
[3]; intratumoral injections, 0.4 mg/kg 3 times a week
  effect on tumor development of ES2 cells: significant effect
[3]; subcutaneously by Alzet minipumps, 2.3 mg/kg per day
  effect on tumor development of ES2 cells: significant effect
